Experimental data from PubChem BioAssay (NCI).
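All cell lines were grown in 96-well plates and treated with compound for 48 hours. GI50 = concentration required for 50% inhibition of growth. TGI is the concentration that stops growth completely.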

What was measured:
Experiment in all cases: NCI-60 cell line screen, 48 h
PC-3 prostate = test system: PC-3 prostate
SW-620 colon = test system: SW-620 colon
COLO 205 colon = test system: COLO 205 colon
A549 NSCLC = test system: A549 NSCLC
HOP-92 NSCLC = test system: HOP-92 NSCLC
KM12 colon = test system: KM12 colon
NCI-H460 lung = test system: NCI-H460 lung
SF-539 CNS = test system: SF-539 CNS
SNB-19 CNS = test system: SNB-19 CNS
NCI-H226 lung = test system: NCI-H226 lung
HL-60(TB) leukemia = test system: HL-60(TB) leukemia
DU-145 prostate = test system: DU-145 prostate
SR leukemia = test system: SR leukemia
SN12C renal = test system: SN12C renal
HCC-2998 colon = test system: HCC-2998 colon
HOP-62 NSCLC = test system: HOP-62 NSCLC
NCI-H522 lung = test system: NCI-H522 lung
BT-549 breast = test system: BT-549 breast
SK-MEL-5 melanoma = test system: SK-MEL-5 melanoma
MDA-MB-468 breast = test system: MDA-MB-468 breast
A498 renal = test system: A498 renal
RPMI-8226 leukemia = test system: RPMI-8226 leukemia
IGROV1 ovarian = test system: IGROV1 ovarian
HCT-116 colon = test system: HCT-116 colon
CCRF-CEM leukemia = test system: CCRF-CEM leukemia
786-0 renal = test system: 786-0 renal
HCT-15 colon = test system: HCT-15 colon
MDA-MB-435 = test system: MDA-MB-435
CAKI-1 renal = test system: CAKI-1 renal
HS 578T breast = test system: HS 578T breast
MCF7 breast = test system: MCF7 breast
SK-MEL-28 melanoma = test system: SK-MEL-28 melanoma
OVCAR-5 ovarian = test system: OVCAR-5 ovarian
SF-268 CNS = test system: SF-268 CNS
TK-10 renal = test system: TK-10 renal
T-47D breast = test system: T-47D breast
RXF 393 renal = test system: RXF 393 renal
LOX IMVI melanoma = test system: LOX IMVI melanoma
UACC-62 melanoma = test system: UACC-62 melanoma
NCI-H23 lung = test system: NCI-H23 lung
ACHN renal = test system: ACHN renal
U251 CNS = test system: U251 CNS
SF-295 CNS = test system: SF-295 CNS
K-562 leukemia = test system: K-562 leukemia
OVCAR-3 ovarian = test system: OVCAR-3 ovarian
OVCAR-8 ovarian = test system: OVCAR-8 ovarian
SK-OV-3 ovarian = test system: SK-OV-3 ovarian
MOLT-4 leukemia = test system: MOLT-4 leukemia
MALME-3M melanoma = test system: MALME-3M melanoma
NCI/ADR-RES ovarian = test system: NCI/ADR-RES ovarian
EKVX NSCLC = test system: EKVX NSCLC
UACC-257 melanoma = test system: UACC-257 melanoma
OVCAR-4 ovarian = test system: OVCAR-4 ovarian
HT29 colon = test system: HT29 colon
M14 melanoma = test system: M14 melanoma

With `Cc1nn(-c2ccccc2)c2nc(C)n(CC(=O)N/N=C/c3ccccc3O)c(=O)c12` the GI50 (PC-3 prostate) was 4.47 µM, the TGI (PC-3 prostate) was 29.3 µM and the GI50 (SW-620 colon) was 4.22 µM. The TGI (SW-620 colon) was greater than 100 µM, the GI50 (COLO 205 colon) was 2.83 µM and the TGI (COLO 205 colon) was 14.9 µM. For the same compound, the GI50 (A549 NSCLC) was 6.12 µM, the TGI (A549 NSCLC) was 21.1 µM and the GI50 (HOP-92 NSCLC) was 3.29 µM. The TGI (HOP-92 NSCLC) was 20.6 µM, the GI50 (KM12 colon) was 4.12 µM and the TGI (KM12 colon) was greater than 100 µM. It also gave a GI50 (NCI-H460 lung) of 3.59 µM, a TGI (NCI-H460 lung) of 16.2 µM and a GI50 (SF-539 CNS) of 4.46 µM. For the same compound, the TGI (SF-539 CNS) was 26.9 µM, the GI50 (SNB-19 CNS) was 7.44 µM and the TGI (SNB-19 CNS) was 39.2 µM. The GI50 (NCI-H226 lung) was 12.9 µM, the TGI (NCI-H226 lung) was 38.9 µM and the GI50 (HL-60(TB) leukemia) was 2.13 µM. It also gave a TGI (HL-60(TB) leukemia) of 7.52 µM, a GI50 (DU-145 prostate) of 6.32 µM and a TGI (DU-145 prostate) greater than 100 µM. It also gave a GI50 (SR leukemia) of 2.43 µM, a TGI (SR leukemia) of 10.8 µM and a GI50 (SN12C renal) of 5.64 µM. The TGI (SN12C renal) was 46 µM, the GI50 (HCC-2998 colon) was 4.29 µM and the TGI (HCC-2998 colon) was 27.6 µM. It also gave a GI50 (HOP-62 NSCLC) of 4.63 µM, a TGI (HOP-62 NSCLC) of 21.4 µM and a GI50 (NCI-H522 lung) of 3.4 µM. The TGI (NCI-H522 lung) was 22.2 µM, the GI50 (BT-549 breast) was 3.74 µM and the TGI (BT-549 breast) was 25.4 µM. For the same compound, the GI50 (SK-MEL-5 melanoma) was 3.75 µM, the TGI (SK-MEL-5 melanoma) was 19.4 µM and the GI50 (MDA-MB-468 breast) was 3.36 µM. For the same compound, the TGI (MDA-MB-468 breast) was 19.4 µM, the GI50 (A498 renal) was 19.3 µM and the TGI (A498 renal) was 83.1 µM. It also gave a GI50 (RPMI-8226 leukemia) of 5.53 µM, a TGI (RPMI-8226 leukemia) of 48.4 µM and a GI50 (IGROV1 ovarian) of 6.36 µM. For the same compound, the TGI (IGROV1 ovarian) was 66.3 µM, the GI50 (HCT-116 colon) was 4.85 µM and the TGI (HCT-116 colon) was 18.9 µM. The GI50 (CCRF-CEM leukemia) was 2.09 µM, the TGI (CCRF-CEM leukemia) was 16.8 µM and the GI50 (786-0 renal) was 6.16 µM. The TGI (786-0 renal) was 31.8 µM, the GI50 (HCT-15 colon) was 2.26 µM and the TGI (HCT-15 colon) was greater than 100 µM. It also gave a GI50 (MDA-MB-435) of 8.63 µM, a TGI (MDA-MB-435) greater than 100 µM and a GI50 (CAKI-1 renal) of 4.93 µM. The TGI (CAKI-1 renal) was 26.2 µM, the GI50 (HS 578T breast) was 9.4 µM and the TGI (HS 578T breast) was 70.9 µM. It also gave a GI50 (MCF7 breast) of 3.62 µM, a TGI (MCF7 breast) of 31.1 µM and a GI50 (SK-MEL-28 melanoma) of 4.58 µM. For the same compound, the TGI (SK-MEL-28 melanoma) was 33.7 µM, the GI50 (OVCAR-5 ovarian) was 8.89 µM and the TGI (OVCAR-5 ovarian) was 51.4 µM. It also gave a GI50 (SF-268 CNS) of 3.31 µM, a TGI (SF-268 CNS) greater than 100 µM and a GI50 (TK-10 renal) of 7.5 µM. It also gave a TGI (TK-10 renal) of 45.4 µM, a GI50 (T-47D breast) of 4.41 µM and a TGI (T-47D breast) of 36.9 µM. The GI50 (RXF 393 renal) was 4.92 µM, the TGI (RXF 393 renal) was 24.1 µM and the GI50 (LOX IMVI melanoma) was 1.78 µM. The TGI (LOX IMVI melanoma) was 14 µM, the GI50 (UACC-62 melanoma) was 3.02 µM and the TGI (UACC-62 melanoma) was 12.5 µM. The GI50 (NCI-H23 lung) was 4.62 µM, the TGI (NCI-H23 lung) was 22.4 µM and the GI50 (ACHN renal) was 2.62 µM. It also gave a TGI (ACHN renal) of 14.7 µM, a GI50 (U251 CNS) of 3.93 µM and a TGI (U251 CNS) of 19.6 µM. It also gave a GI50 (SF-295 CNS) of 4.79 µM, a TGI (SF-295 CNS) of 22.6 µM and a GI50 (K-562 leukemia) of 3.48 µM. For the same compound, the TGI (K-562 leukemia) was greater than 100 µM, the GI50 (OVCAR-3 ovarian) was 2.66 µM and the TGI (OVCAR-3 ovarian) was 28 µM. For the same compound, the GI50 (OVCAR-8 ovarian) was 3.86 µM, the TGI (OVCAR-8 ovarian) was 21.1 µM and the GI50 (SK-OV-3 ovarian) was 6.5 µM. The TGI (SK-OV-3 ovarian) was 28.5 µM, the GI50 (MOLT-4 leukemia) was 2.59 µM and the TGI (MOLT-4 leukemia) was 10.7 µM. It also gave a GI50 (MALME-3M melanoma) of 4.33 µM, a TGI (MALME-3M melanoma) of 30 µM and a GI50 (NCI/ADR-RES ovarian) of 3.79 µM. The TGI (NCI/ADR-RES ovarian) was 17.9 µM, the GI50 (EKVX NSCLC) was 2.55 µM and the TGI (EKVX NSCLC) was 17 µM. The GI50 (UACC-257 melanoma) was 5.46 µM, the TGI (UACC-257 melanoma) was 31.3 µM and the GI50 (OVCAR-4 ovarian) was 3.18 µM. It also gave a TGI (OVCAR-4 ovarian) of 42.8 µM, a GI50 (HT29 colon) of 4.91 µM and a TGI (HT29 colon) of 20.5 µM. It also gave a GI50 (M14 melanoma) of 2.89 µM and a TGI (M14 melanoma) of 15.6 µM.
